We go through 1 compound from patent US20110158930A1, “METHOD FOR TREATMENT OF IRRITABLE BOWEL SYNDROME” (ASTELLAS PHARMA INC., priority 2008, published 2011).

The test system of data set [1] is restraint stress induced diarrhea in rats. The data set is described as follows: Restraint stress induced diarrhea in rats. It counts as in vivo, rat. As to the method: Ramosetron hydrochloride, polycarbophil calcium (Astellas Pharma, Inc.) and 5-HT creatinine sulfate (Wako Pure Chemical Industries Ltd.) were used. Ramosetron was dissolved and diluted with distilled water. Polycarbophil was prepared by decalcification of polycarbophil calcium according to a reported method (Yamada et al., Iyakuhin Kenkyu 1997; 28: 23-32), and suspended and diluted with distilled water. In this experiment, ramosetron was used and expressed as its hydrochloride form. All the test substances were orally administered in a dose of 12 mL/kg. In combined administration of ramosetron and polycarbophil, a mixed solution of the two drugs was prepared and this was orally administered. Male Wistar rats (13 to 14-week age, Japan SLC Inc.) that had been fasted overnight were stressed by confinement in a restraint stress cage (KN-468, Natsume Seisakusho Co., Ltd.) (Hirata et al., Neurogastroenterol. Motil. 2008; 20: 557-565). The condition of the stool excreted within 3 hours after the initiation of the restraint stress was observed, and the occurrence of diarrhea was defined in case where the excreted stool condition was wet, amorphous and muddy stool. […] All the results were statistically analyzed using Statistical Analysis System ver. […] In this experiment, all the data were expressed as two significant figures. In the investigation using the diarrheal models, the incidence of diarrhea was calculated in each group, then the significance was evaluated according to the Fisher's exact test, and if desired, the significance level was corrected according to the Bonferroni's method for consideration of multiplicity (the case of P<0.05 or P<0.05/3 was given significance). In the experiments of spontaneous defecation, the mean value of total stool weight±SEM was calculated in every group, and the significance was evaluated according to Student's t-test (between two groups) or Dunnett's multiple comparison test (between multiple groups) (the case of P<0.05 was given significance).

Data set [2] deals with 5-HT induced diarrhea in mice. The experiment in a line: 5-HT induced diarrhea in mice. In kind it is in vivo, mouse. As to the method: (§1) Ramosetron hydrochloride, polycarbophil calcium (Astellas Pharma, Inc.) and 5-HT creatinine sulfate (Wako Pure Chemical Industries Ltd.) were used. Ramosetron was dissolved and diluted with distilled water. Polycarbophil was prepared by decalcification of polycarbophil calcium according to a reported method (Yamada et al., Iyakuhin Kenkyu 1997; 28: 23-32), and suspended and diluted with distilled water. In this experiment, ramosetron was used and expressed as its hydrochloride form. All the test substances were orally administered in a dose of 12 mL/kg. In combined administration of ramosetron and polycarbophil, a mixed solution of the two drugs was prepared and this was orally administered.
Each test substance was orally administered to male ICR mice (9-week age, Clea Japan, Inc.), and after 2 hours, 5-HT (3 mg/kg) was intraperitoneally administered (Miyata et al., J. Pharmacol. Exp. Ther. 1992; 261: 297-303). The mice were put individually in separate cages, and the condition of the stool excreted within 3 hours after the 5-HT administration was observed. The occurrence of diarrhea was defined in case where the excreted stool condition was loose stool (wet pasty stool) or watery stool (amorphous muddy stool). […]
All the results were statistically analyzed using Statistical Analysis System ver. […] In this experiment, all the data were expressed as two significant figures. In the investigation using the diarrheal models, the incidence of diarrhea was calculated in each group, then the significance was evaluated according to the Fisher's exact test, and if desired, the significance level was corrected according to the Bonferroni's method for consideration of multiplicity (the case of P<0.05 or P<0.05/3 was given significance). In the experiments of spontaneous defecation, the mean value of total stool weight±SEM was calculated in every group, and the significance was evaluated according to Student's t-test (between two groups) or Dunnett's multiple comparison test (between multiple groups) (the case of P<0.05 was given significance).

The subject of data set [3] is spontaneous defecation in mice. The data set is described as follows: Spontaneous defecation in mice (total stool weight). In kind it is in vivo, mouse. The following applies: ddy mice. As to the method:
as §1
In this experiment, male ddy mice (Nippon SLC, 5-week age) were used. Spontaneous defecation was measured individually in separate cages with a wire flooring under free drinking and free feeding condition. […]
The effect of single administration of ramosetron or polycarbophil alone was investigated with the following group composition, and the total stool weight in 2 hours after administration of each test substance was measured (n=10 in every group): Distilled water administration group (control group); ramosetron administration group (10, 30 and 100 μg/kg); polycarbophil administration group (100, 300 and 1,000 mg/kg). […]
All the results were statistically analyzed using Statistical Analysis System ver. […]

For the compound `Cn1cc(C(=O)[C@@H]2CCc3nc[nH]c3C2)c2ccccc21` [ramosetron, (−)-(R)-5-[(1-methyl-1H-indol-3-yl)carbonyl]-4,5,6,7-tetrahydro-1H-benzimidazole], the incidence of diarrhea in data set [1] (ramosetron 0.3 μg/kg p.o. alone, 4 hours before restraint stress, stool within 3 hours, Wistar rats, n=24) amounted to 46%; in data set [2] (ramosetron 30 μg/kg p.o. alone, 2 hours before 5-HT 3 mg/kg i.p., stool within 3 hours, ICR mice, n=24), 58%. The “effect on restraint stress induced diarrhea” value in data set [1] (ramosetron 0.1 to 1 μg/kg p.o. alone, n=12) was “dose-dependently inhibited”. Besides, the “significance of inhibition of restraint stress induced diarrhea vs distilled water” value in data set [1] (ramosetron 0.3 and 1 μg/kg p.o. alone, n=12, Fisher's exact test) is listed as “significant inhibitory effect”. In data set [2] (ramosetron 10 to 100 μg/kg p.o. alone, n=12), the “effect on 5-HT induced diarrhea” value is listed as “dose-dependently inhibited”. For the same compound, the “significance of inhibition of 5-HT induced diarrhea vs distilled water” value in data set [2] (ramosetron 30 and 100 μg/kg p.o. alone, n=12, Fisher's exact test) is reported as “significant inhibitory effect”. Further, the “total stool weight in 2 hours vs distilled water group” value in data set [3] (ramosetron 100 μg/kg p.o. single administration alone, n=10, Dunnett's test) is on record as “significant reduction in the total stool weight”. The “effect on spontaneous defecation (total stool weight in 2 hours)” value in data set [3] (ramosetron 10 to 100 μg/kg p.o. single administration alone, n=10) is reported as “dose-dependently inhibited spontaneous defecation”.
